Data as given in patent publication US10975029B2, “Crystalline eravacycline bis-hydrochloride” (Sandoz AG, priority 2016, dated 2021).
Where a name gives a salt, the structure may show the parent alone.

Key:
Assay type in all cases: physicochemical
[1] = Gravimetric moisture sorption isotherm, 0% to 95% RH, with pictures to detect visual changes (deliquescence); conditions: for relative humidity at which the solid liquefies (deliquescence): measured at 25.0±0.1° C., dihydrochloride
Method: Moisture sorption isotherms were recorded with an SPSx-1μ moisture sorption analyzer (proUmid, Ulm). The measurement cycle was started at ambient relative humidity (RH) of 25% and first decreased in 5% steps to 5% RH, in one step to 3% RH in a further step to 0% RH. Then RH was increased from 0% to 95% in 5% steps. The time per step was set to a minimum of 2 hours and a maximum of 6 hours. If an equilibrium condition with a constant mass of +0.01% within 1 hour was reached before the maximum time for all examined samples, the sequential humidity step was applied before the maximum time of 6 hours. If no equilibrium was achieved, the consecutive humidity step was applied after the maximum time of 6 hours. The temperature was 25±0.1° C. At the beginning of the GMS experiment, as well as at the end of each RH-step a picture was taken of each sample in order to detect visual changes in the samples. Pictures were taken with a 2046×2046 pixel CMOS image sensor attached to a 35 mm/F 1.4 lens, which was directly connected to the cover plate of moisture sorption analyzer.

[2] = Comparative Example 1: gravimetric moisture sorption/desorption experiment, 0 to 80% RH; conditions: 25° C.; for hysteresis between the sorption and the desorption curve: 0 to 80% RH; for hysteresis between the sorption and the desorption curve / mass increase during the sorption cycle from 0 to 80% RH: dihydrochloride; for mass increase during the sorption cycle from 0 to 80% RH: sorption cycle 0 to 80% RH, reference weight at 0% RH
Excerpt: Crystalline eravacycline bis-hydrochloride of the present invention and amorphous eravacycline bis-hydrochloride were both subjected to a gravimetric moisture sorption/desorption experiment using an SPSx-1μ moisture sorption analyzer (ProUmid, Ulm). The measurement cycles were started at ambient relative humidity (RH) of 20% and the RH was first decreased in 5% steps to 5% RH, in one step to 3% RH in a further step to 0% RH. Then RH was increased from 0% to 80% and decreased from 80 to 0% RH in 5% steps. Finally, the relative humidity was increased to ambient relative humidity of 20% in 3 steps of approximately 7% steps. The time per step was set to a minimum of 2 hours and a maximum of 6 hours. If an equilibrium condition with a constant mass of 0.01% within 1 hour was reached before the maximum time for all examined samples the sequential humidity step was applied before the maximum time of 6 hours. If no equilibrium was achieved the consecutive humidity step was applied after the maximum time of 6 hours. The temperature was (25±0.1)° C.

[3] = Comparative Example 2: chemical stability under accelerated stress conditions, HPLC at 254 nm; conditions: dihydrochloride; for Area % (HPLC, 254 nm) after 40° C./75% RH for 19 days / Area % (HPLC, 254 nm) after 40° C./75% RH for 42 days: open stored in glass vials; for Area % (HPLC, 254 nm), initial sample: before stress
Excerpt: [formula] mT=initial mass of eravacycline bis-hydrochloride tested in mg VT=consumption of volumetric solution for titration of eravacycline bis-hydrochloride in mL F=factor of the volumetric solution 36.46=molecular mass of hydrochloride in g/mol 0.1=molarity of the volumetric solution 100=conversion to % High Performance Liquid Chromatography Instrument: Agilent HP 1100 with Chemstation Column: YMC-Pack Pro C18 RS; 150*4.6 mm; 3 microm Solvent: A: 40 mmol amidosulfonic acid in water • B: 40 mmol amidosulfonic acid in water with 75% acetonitrile Gradient: […]
Injection volume: 5 microL Flow: 0.8 mL/min Oven temperature: 40° C. Wavelength: 254 nm
Crystalline eravacycline bis-hydrochloride of the present invention and amorphous eravacycline bis-hydrochloride were subjected to accelerated stress conditions of 40° C. and 75% relative humidity. The samples were open stored in glass vials and analyzed by high performance liquid chromatography at 254 nm using the method as described in the experimental section above.

[4] = listed as amorphous eravacycline 2HCl
[5] = listed as crystalline eravacycline 2HCl

Row | Structure (SMILES) | relative humidity at which the solid liquefies (deliquescence) [1] | hysteresis between the sorption and the desorption curve [2] | water content in the desorption curve at 40% relative humidity ([2]; 40% RH, desorption curve, FIG. 7) | water content in the sorption curve at 40% relative humidity ([2]; 40% RH, sorption curve, FIG. 7) | mass increase during the sorption cycle from 0 to 80% RH [2] | mass increase during the sorption cycle from 0 to 80% RH ([2]; listed as Amorphous eravacycline bis-hydrochloride) | Area % (HPLC, 254 nm) after 40° C./75% RH for 19 days [3, 4] | Area % (HPLC, 254 nm) after 40° C./75% RH for 42 days [3, 4] | Area % (HPLC, 254 nm), initial sample [3, 4] | water content at a relative humidity of 0% ([1]; 0% RH, gravimetric moisture sorption, 25° C.) | water content at a relative humidity of 90% ([1]; 90% RH, gravimetric moisture sorption, 25° C.) | behaviour when subjected to relative humidity of about 0 to 90% ([1]; relative humidity about 0 to 90% at 25.0±0.1° C.) | water content during the sorption and the desorption cycle at 40% relative humidity ([2]; 40% RH, sorption and desorption cycle, FIG. 6) | Area % (HPLC, 254 nm) after 40° C./75% RH for 19 days [3, 5] | Area % (HPLC, 254 nm) after 40° C./75% RH for 42 days [3, 5] | Area % (HPLC, 254 nm), initial sample [3, 5]
1 | CN(C)[C@@H]1C(O)=C(C(N)=O)C(=O)[C@@]2(O)C(O)=C3C(=O)c4c(O)c(NC(=O)CN5CCCC5)cc(F)c4C[C@H]3C[C@@H]12 [amorphous eravacycline bis-hydrochloride, (4S,4aS,5aR,12aS)-4-(Dimethylamino)-7-fluoro-3,10,12,12a-tetrahydroxy-1,11-dioxo-9-[2(-pyrrolidin-1-yl)acetamido]-1,4,4a,5,5a,6,11,12a-octahydrotetracene-2-carboxamide dihydrochloride] | 85% | significant hysteresis | 14.3% | about 8.9 weight % | about 26.1 weight % | about 26.1 weight % | 31.9 Area % | 30.3 Area % | 97.2 Area % |  |  |  |  |  |  | 
2 | CN(C)[C@@H]1C(O)=C(C(N)=O)C(=O)[C@@]2(O)C(O)=C3C(=O)c4c(O)c(NC(=O)CN5CCCC5)cc(F)c4C[C@H]3C[C@@H]12 [crystalline eravacycline bis-hydrochloride] [(4S,4aS,5aR,12aS)-4-(Dimethylamino)-7-fluoro-3,10,12,12a-tetrahydroxy-1,11-dioxo-9-[2(-pyrrolidin-1-yl)acetamido]-1,4,4a,5,5a,6,11,12a-octahydrotetracene-2-carboxamide dihydrochloride] | 95% | no significant hysteresis |  |  |  |  |  |  |  | about 0 weight % | about 20.1% | does not liquefy | about 13 weight % | 77.1 Area % | 73.8 Area % | 95.8 Area %
